According to patent US20230405078A1, “DETECTION AND TREATMENT OF INTESTINAL FIBROSIS” (THE REGENTS OF THE UNIVERSITY OF CALIFORNIA, priority 2020, published 2023):

System: mouse RAW264.7 macrophages
Experiment: TNFα secretion in RAW264.7 macrophages
Assay type: cell-based
Conditions: elafin 10-1000 ng/ml, 6 h
Description: Mouse RAW264.7 macrophages (#TIB-71, ATCC) were cultured in Dulbecco's modified Eagle's medium (DMEM) (#11965-084, ThermoFisher) with 10% fetal bovine serum (FBS) (#10437-028, Life Technologies) and 1% penicillin/streptomycin/glutamine (P/S/G) (#10378-016, Life Technologies) mixture. The macrophages were serum-starved overnight, followed by exposure to fatty acid-free bovine serum albumin (BSA) (A7030, Sigma), sodium palmitate (P9767, Sigma), or lipopolysaccharide (LPS) (L5418, Sigma) for 2 h, and then the addition of elafin (10-1000 ng/ml) for additional 6 h. The cell-conditioned media were used for mouse TNFα ELISA (DY410, R&D Systems).

Elafin: small (6 kDa) human elastase-specific protease inhibitor and antimicrobial peptide; active form SEQ ID NO: 2 (AQEPVKGPVSTKPGSCPIILIRCAMLNPPNRCLKDTDCPGIKKCCEGSCGMACFVPQ; listed as Homo sapiens)
LPS- and palmitate-induced TNFα secretion: did not affect
